Reference: patent US11105813B2, “Method for target protein identification using thermal stability shift-based fluorescence difference in two-dimensional gel electrophoresis” (priority 2016, dated 2021)

Columns and labels:
[1] = target: T1, PKCα (Homo sapiens, UniProt P17252); assay: CETSA and isothermal dose-response, PKCα; assay type: cell-based; details: Jurkat cells, 48° C.
T1 construct: Jurkat cell was used for bryostatin 1; endogenous in cells; host or cells: Jurkat clone E6-1
Experimental: HEK293T cells were harvested with trypsin/EDTA solution and resuspended in a conical tube before compound treatment. […] After the compound treatment, cells were aliquoted, heated to a range of temperature for 3 min, and cooled to 25° C. for 3 min. The heated cells were harvested, washed with PBS, and resuspended with lysis buffer (PBS supplemented with protease inhibitor cocktail). The cell suspension was freeze-thawed three times with liquid nitrogen for cell lysis. Soluble fraction was separated from the cell lysate following centrifugation at 20,000 g for 20 min at 4° C. Procedures for isothermal dose-response (ITDR) analysis was identical with the above-mentioned procedures except that cells were treated with various compound concentrations and heated at a fixed temperature.
Western blot—The soluble fraction was mixed with 5×Laemmli buffer followed by heating at 95° C. for 5 min. Proteins were separated by SDS-PAGE and transferred to PVDF membranes. […] The membranes were developed with Amersham ECL prime western blotting detection reagent [GE Healthcare], and detected by ChemiDoc [Bio-Rad]. The relative band intensities to 37° C. was calculated within each of drug-treated group and control group each for the CETSA curves. For ITDR curves, the relative band intensities to DMSO group was calculated. […]

[2] = target: T1, PKCα; assay: Translocation of PKCα between soluble and insoluble fraction (western blot); assay type: cell-based; details: lysis buffer without a mild detergent
[3] = target: T2, elongation factor 1-delta (EEF1D) (Homo sapiens, UniProt P29692); assay: CETSA, EEF1D; assay type: cell-based; details: HEK293T cells
T2 construct: hordenine with HEK293T cells at 20 μM for 3 h; endogenous in cells; host or cells: HEK293T
T2 sequence (P29692 1-281): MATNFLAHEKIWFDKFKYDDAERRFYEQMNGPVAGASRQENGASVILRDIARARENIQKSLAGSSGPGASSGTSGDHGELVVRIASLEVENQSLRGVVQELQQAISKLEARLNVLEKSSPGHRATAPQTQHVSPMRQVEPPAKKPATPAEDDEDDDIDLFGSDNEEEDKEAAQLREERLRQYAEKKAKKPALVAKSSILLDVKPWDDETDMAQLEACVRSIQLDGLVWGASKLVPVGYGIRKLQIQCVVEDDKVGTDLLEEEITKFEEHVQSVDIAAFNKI
Experimental: (§1) Western blot—The soluble fraction was mixed with 5×Laemmli buffer followed by heating at 95° C. for 5 min. Proteins were separated by SDS-PAGE and transferred to PVDF membranes. The membranes were in tris-buffered saline with Tween-20 (TBST) including 2% BSA for 1 h at 4° C., and incubated with primary antibodies (anti-DHFR [ab133546, abcam], anti-TYMS [3766, Cell signaling], anti-PKCα [2056, Cell signaling], anti-PKCβI [ab195039, abcam], anti-PKCβII [ab32026, abcam], anti-PKCγ [402 ab131222, abcam], anti-PKCδ [9616, Cell signaling], anti-PKCε [ab124806, abcam], anti-PKCμ [2052, Cell signaling], anti-PKCθ [ab110728, abcam], anti-PKCζ [9368, Cell signaling], anti-NPM [ab52644, abcam], anti-RPSA [ab133645, abcam], anti-SET [ab176567, abcam], anti-EEF1D [ab88868, abcam], anti-GAPDH [2118, Cell signaling], and anti-β-tubulin [2146, Cell signaling])) overnight. The membrane was then washed with TBST and incubated with secondary antibodies (anti-rabbit IgG, HRP linked [7074, Cell signaling]) for 1 h at room temperature. The membranes were developed with Amersham ECL prime western blotting detection reagent [GE Healthcare], and detected by ChemiDoc [Bio-Rad]. The relative band intensities to 37° C. was calculated within each of drug-treated group and control group each for the CETSA curves. For ITDR curves, the relative band intensities to DMSO group was calculated.

[4] = tested on: translation of the luciferase reporter gene; assay: In vitro protein translation (luciferase reporter); assay type: biochemical; details: 30° C. for 1 h
Experimental: (§2) In vitro protein translation—TNT quick coupled transcription/translation system [Promega] was used for in vitro translation. TNT Quick Master Mix and T7 luciferase control DNA were mixed according to the manufacturer's protocol, and incubated with compounds at 30° C. for 1 h. After the addition of Luciferase assay reagent [Promega], luminescence from the control luciferase product was read by Synergy HT [BioTek] to measure the effect of compounds on protein translation.

[5] = target: T3, 40S ribosomal protein SA (RPSA) (Homo sapiens, UniProt P08865); assay: CETSA, RPSA; assay type: cell-based; details: HEK293T cells
T3 construct: hordenine with HEK293T cells at 20 μM for 3 h; endogenous in cells; host or cells: HEK293T
Experimental: as §1

[6] = target: T4, NPM (Oryctolagus cuniculus, UniProt G1T0N4); assay: Nucleophosmin depletion for functional validation (in vitro translation); assay type: biochemical; details: 10 μM of hordenine, 30° C. for 1 h
T4 construct: incubated with the in vitro translation system to scavenge NPM; tissue Promega; host or cells: TNT Quick Master Mix (reticulocyte lysate, own knowledge)
T4 sequence (G1T0N4 1-294): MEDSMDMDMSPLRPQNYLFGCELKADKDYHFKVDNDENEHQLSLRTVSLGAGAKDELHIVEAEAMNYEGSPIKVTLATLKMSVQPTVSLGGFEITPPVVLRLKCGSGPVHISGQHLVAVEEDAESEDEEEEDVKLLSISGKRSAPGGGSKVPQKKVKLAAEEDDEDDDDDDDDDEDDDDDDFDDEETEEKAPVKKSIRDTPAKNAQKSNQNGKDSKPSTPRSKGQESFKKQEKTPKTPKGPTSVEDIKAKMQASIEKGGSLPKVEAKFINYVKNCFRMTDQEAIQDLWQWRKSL
Experimental: as §2
Nucleophosmin depletion for functional validation—Protein G sepharose beads [Sigma] were washed with PBS and incubated with anti-NPM antibody at 4° C. for 2 h. Unbound antibodies were washed away. The anti-NPM bound Protein G beads were mixed with TNT Quick Master Mix and incubated at 4° C. for 2 h. The beads were removed by centrifugation, and the supernatant was incubated with T7 luciferase control DNA and 10 μM of hordenine at 30° C. for 1 h. Luminescence was read after the addition of Luciferase assay reagent.

[7] = target: T5, nucleophosmin (NPM) (Homo sapiens, UniProt P06748); assay: CETSA and isothermal dose-response, NPM; assay type: cell-based; details: HEK293T cells, compared to β-tubulin and GAPDH
T5 construct: hordenine with HEK293T cells at 20 μM for 3 h; endogenous in cells; host or cells: HEK293T
T5 sequence (P06748 whole entry): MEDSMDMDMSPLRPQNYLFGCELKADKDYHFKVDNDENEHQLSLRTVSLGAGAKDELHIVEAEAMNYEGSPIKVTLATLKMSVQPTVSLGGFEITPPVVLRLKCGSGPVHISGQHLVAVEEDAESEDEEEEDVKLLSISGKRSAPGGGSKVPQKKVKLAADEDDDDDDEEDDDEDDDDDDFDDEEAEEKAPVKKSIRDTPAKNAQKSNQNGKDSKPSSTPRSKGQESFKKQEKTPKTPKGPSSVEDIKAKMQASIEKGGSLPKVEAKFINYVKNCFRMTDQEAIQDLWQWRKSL
Experimental: as §1

[8] = target: T6, protein SET (SET) (Homo sapiens, UniProt Q01105); assay: CETSA, SET; assay type: cell-based; details: HEK293T cells
T6 construct: hordenine with HEK293T cells at 20 μM for 3 h; endogenous in cells; host or cells: HEK293T
T6 sequence (Q01105 whole entry): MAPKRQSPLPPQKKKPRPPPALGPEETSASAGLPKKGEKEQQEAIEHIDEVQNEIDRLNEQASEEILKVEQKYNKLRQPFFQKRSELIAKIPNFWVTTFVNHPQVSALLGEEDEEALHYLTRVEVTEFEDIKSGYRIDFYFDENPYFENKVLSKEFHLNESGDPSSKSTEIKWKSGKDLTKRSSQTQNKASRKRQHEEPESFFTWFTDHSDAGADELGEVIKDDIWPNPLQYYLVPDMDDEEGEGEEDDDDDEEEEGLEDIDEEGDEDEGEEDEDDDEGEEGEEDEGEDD
Experimental: as §1

| SMILES | isothermal dose-response of PKCα [1] | location of PKCα (soluble / insoluble fraction) [2] | thermal stability shift of EEF1D (CETSA) [3] | effect on translation of the luciferase reporter gene [4] | thermal stability shift of RPSA (CETSA) [5] | upregulating efficacy on luciferase gene translation diminished after NPM depletion [6] [%] | thermal stability shift of NPM (CETSA) [7] | thermal stability shift of SET (CETSA) [8] |
| --- | --- | --- | --- | --- | --- | --- | --- | --- |
| CCC/C=C/C=C/C(=O)O[C@H]1/C(=C/C(=O)OC)C[C@H]2C[C@H]([C@@H](C)O)OC(=O)C[C@H](O)C[C@@H]3C[C@H](OC(C)=O)C(C)(C)[C@](O)(C[C@@H]4C/C(=C/C(=O)OC)C[C@H](/C=C/C(C)(C)[C@]1(O)O2)O4)O3 [bryostatin 1] | dose-dependent thermal destabilization | moved to insoluble fraction | – | – | – | – | – | – |
| CN(C)CCc1ccc(O)cc1 [hordenine, N,N-dimethyltyramine] | – | – | did not | increase the translation | did not | 72.7 | significant thermal stabilization | did not |
